# Assay results from ChEMBL document CHEMBL1134784, “Synthesis and screening for antiacetylcholinesterase activity of (1-benzyl-4-oxopiperidin-3-ylidene)methylindoles and -pyrroles related to donepezil” (J Med Chem, 2001).
# Target: Acetylcholinesterase (Homo sapiens, UniProt P22303)
# Sequence (P22303 whole entry): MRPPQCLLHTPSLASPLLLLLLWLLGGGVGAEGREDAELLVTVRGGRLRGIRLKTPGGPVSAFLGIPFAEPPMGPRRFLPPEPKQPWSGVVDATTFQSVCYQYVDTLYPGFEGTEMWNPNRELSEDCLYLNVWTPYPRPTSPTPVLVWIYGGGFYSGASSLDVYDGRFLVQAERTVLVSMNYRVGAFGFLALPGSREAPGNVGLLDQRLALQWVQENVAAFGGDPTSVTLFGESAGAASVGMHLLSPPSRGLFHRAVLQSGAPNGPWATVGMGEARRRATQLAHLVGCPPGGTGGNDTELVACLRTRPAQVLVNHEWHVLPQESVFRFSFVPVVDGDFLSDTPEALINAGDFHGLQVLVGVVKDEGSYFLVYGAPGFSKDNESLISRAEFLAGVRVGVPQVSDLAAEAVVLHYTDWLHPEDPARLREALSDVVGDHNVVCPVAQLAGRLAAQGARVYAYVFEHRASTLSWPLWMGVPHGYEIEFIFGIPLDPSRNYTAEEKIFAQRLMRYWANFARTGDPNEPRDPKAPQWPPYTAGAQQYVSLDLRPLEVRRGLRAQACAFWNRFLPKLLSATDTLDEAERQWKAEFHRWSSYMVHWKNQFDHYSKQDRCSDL
# Description: Inhibitory concentration required against acetylcholinesterase activity
row,Compound,IC50
1,Cc1[nH]c(C)c(/C=C2\CN(Cc3ccccc3)CCC2=O)c1C=O,30 µM
2,O=C1/C(=C/c2ccc[nH]2)CN(Cc2ccccc2)C/C1=C\c1ccc[nH]1,18 µM
3,O=C1CCN(Cc2ccccc2)C/C1=C\c1c[nH]c2ccccc12,8 µM
4,O=C1CCN(Cc2ccccc2)C/C1=C\c1cn(C(=O)c2ccc(Cl)cc2)c2ccccc12,50 µM
5,COc1ccc2[nH]cc(/C=C3\CN(Cc4ccccc4)CCC3=O)c2c1,6 µM
6,O=C1CCN(Cc2ccccc2)C/C1=C\c1cc[nH]c1,6 µM
7,COc1ccc(C(=O)n2cc(/C=C3\CN(Cc4ccccc4)CCC3=O)c3ccccc32)cc1,70 µM
8,O=C1CCN(Cc2ccccc2)C/C1=C\c1cn(C(=O)c2ccc(F)cc2)c2ccccc12,60 µM
9,CC(=O)n1cc(/C=C2\CN(Cc3ccccc3)CCC2=O)c2ccccc21,11 µM
10,O=C1CCN(Cc2ccccc2)C/C1=C\c1ccn(C(=O)c2ccccc2)c1,30 µM
11,O=C1CCN(Cc2ccccc2)C/C1=C\c1c[nH]c2ccc(OCc3ccccc3)cc12,25 µM
12,O=C1/C(=C/c2cc[nH]c2)CN(Cc2ccccc2)C/C1=C\c1cc[nH]c1,6 µM
13,N#Cc1ccc(C(=O)n2cc(/C=C3\CN(Cc4ccccc4)CCC3=O)c3ccccc32)cc1,20 µM
14,O=C1CCN(Cc2ccccc2)C/C1=C\c1cn(Cc2ccccc2)c2ccccc12,> 100 µM
15,O=C1CCN(Cc2ccccc2)C/C1=C\c1cccn1C(=O)c1ccccc1,30 µM
16,O=C1CCN(Cc2ccccc2)C/C1=C\c1cn(C(=O)c2ccc([N+](=O)[O-])cc2)c2ccccc12,50 µM
17,O=C1CCN(Cc2ccccc2)C/C1=C\c1ccc[nH]1,11 µM
18,COc1ccc2c(c1)c(/C=C1\CN(Cc3ccccc3)CCC1=O)cn2C(=O)c1ccccc1,80 µM
19,O=C1CCN(Cc2ccccc2)C/C1=C\c1cn(C(=O)c2ccccc2)c2ccccc12,70 µM
20,CC(C)(C)OC(=O)n1cc(/C=C2\CN(Cc3ccccc3)CCC2=O)c2ccccc21,30 µM
